The record followed here is PMC12812009, “Optimization of 4‐Amino‐2‐Pyridone Inhibitors of Proprotein Convertase Subtilisin/Kexin Type 9: Integrating Structure–Activity and Structure–Metabolism Relationships” (Chemmedchem, 2025).

Common to all, as to assay type: cell-based, human
Data set [1] can be described thus: MTT cell viability assay in HepG2 cell cultures. The following applies: human, HepG2 cells, MTT. The procedure:
The approach we set‐up to test the new PCSK9i was based on functional assay, which evaluated at the same time compounds cytotoxicity, and their effect on the secreted PCSK9 on the same cell line. First, cell viability was evaluated in HepG2 cell cultures using the MTT assay (CC50 values are reported in Table 1 and Figure 5 ) after 24 h of incubation in starving conditions (0.4% fetal bovine serum (FBS)). The low FBS concentration, and thus low extracellular lipoproteins, stimulates the sterol responsive element binding protein (SREBP) pathway, inducing the expression of LDLR, PCSK9, HMG‐CoA reductase,^[ [28] ^] thus increasing the uptake of exogenous cholesterol and enhancing the synthesis of endogenous cholesterol. This first step allowed us to calculate the CC50 and identify the noncytotoxic concentrations (viability higher than 90%; Table 1), then tested for PCSK9 inhibitory activity.
Cell viability was assessed using the MTT assay. Cells were seeded in 96‐well plates (2.5 × 10^4 cells/well) in MEM supplemented with 10% v/v FBS and incubated for 24 h. The cells were then treated with the synthesized compounds dissolved in DMSO at increasing concentrations (from 0.5 to 50 µM) in MEM supplemented with 0.4% v/v FBS for 24 h. Simvastatin [20 and 40 µM] and BBR [10 µM] (both from Merck, St. Louis, Missouri, USA) were used as internal controls as PCSK9 inducer and inhibitor, respectively.^[ [21] ^, [34] ^, [35] ^] The cells were then incubated for 2 h with a solution of MTT [1 mg mL^–1] in MEM supplemented with 0.4% v/v FBS, away from light sources. The supernatant was then collected and 200 µL of DMSO was added to each well to solubilize the newly formed formazan. Finally, an aliquot of 100 µL was taken to measure the absorbance at a wavelength of 570 nm using an absorbance microplate reader (Spark Tecan, Switzerland). Every experimental condition was run in duplicate and the average cell viability and standard deviation was calculated. Cell viability was expressed as the percentage of treated cells compared to untreated (basal) cells. CC50 values for each compound were calculated by interpolating the percentage of cell viability through nonlinear regression analysis of the log (inhibition) versus response using GraphPad Prism software version 8.0 (GraphPad Software Inc., La Jolla, CA).

Data set [2] relates to secreted PCSK9. Description: PCSK9 secretion in culture medium, ELISA on HepG2 supernatants. The following applies: for IC50: HepG2, Table S2, ELISA, non-cytotoxic concentrations, read-out: IC50 ± SD on PCSK9 secreted by HepG2; for decrease of secreted PCSK9 vs. basal: given as decrease. Here is the method:
Next, the levels of secreted PCSK9 were quantified by ELISA assay (Figure 5) only on supernatants collected from cells treated with noncytotoxic concentrations of each compound, as reported in Table 1. Simvastatin (Simva) at 20 and 40 μM and berberine (BBR) at 10 μM were included as controls. As described in the literature, simvastatin induces PCSK9 expression as a compensatory mechanism in response to its cholesterol‐lowering effects, being a pharmacological competitor for HMG‐CoA reductase, the rate‐limiting enzyme of the cholesterol biosynthetic pathway.^[ [29] ^] In contrast, BBR, a natural compound, reduces the expression of PCSK9 levels through transcriptional inhibition, thus increasing the LDLR availability on plasma membrane.^[ [30] ^] As additional and distinct mechanism to the latter, BBR is also able to stabilize the transcript of LDLR, thus increasing its half‐life.^[ [31] ^] As expected, cells stimulated with simvastatin released more PCSK9 into the culture medium compared to unstimulated cells, with a statistically significant concentration‐dependent effect (+73% at 20 μM, p < 0.01; +200% at 40 μM, p < 0.0001), while BBR at 10 μM decreased PCSK9 levels in the medium more than 50% (p < 0.0001 vs. basal) (Figure 5).^[ [32] ^] The amount of PCSK9 secreted into the culture media was measured with an appropriate ELISA kit (R&D System, DY3888 and DY008B2) on the supernatants collected during the MTT assay. Every experimental condition was run in duplicate and the average PCSK9 secretion and standard deviation was calculated. A 4PL regression analysis was used to interpolate unknowns with the standard curve using GraphPad Prism v10.2, according to manufacturers’ instructions. The data were normalized onto the corresponding cell viability, and IC50 was then calculated using GraphPad Prism v10.2.
On the technique in general: ELISA stands for enzyme-linked immunosorbent assay.

Data set [3] deals with PCSK9 mRNA. As to the kind of experiment: PCSK9 mRNA expression in HepG2 cells by RTqPCR. The following applies: 24 h incubation, increasing concentrations. The procedure: To further investigate the mechanism of action of these compounds, we evaluated the PCSK9 mRNA levels after 24 h incubation with increasing concentrations of 5c, 6b, and 7.
Total RNA was extracted using the iScript RT‐qPCR Sample Prep reagent (Bio‐Rad), according to the manufacturer's instructions. QuantiNova SYBR Green RT‐PCR Kit (QIAGEN, Hilden, Germany) was used for qPCR, along with specific primers for 18S (FWD 5′‐[…]‐3′, REV 5′‐[…]‐3′) PCSK9 (FWD 5′‐CCTGCGCGTGCTCAACT‐3′, REV 5′‐[…]‐3′). The analyses were performed with the CFX96 Touch Real‐Time PCR Detection System (Bio‐Rad) with cycling conditions of 45 °C for 10 min, 95 °C for 5 min, and a repetition of 40 cycles at 95 °C for 5 s followed by 30 s at 60 °C. The data were expressed as Ct values and used for relative quantification of targets with ΔΔCt calculations. The ΔΔCt values were determined by multiplying the ratio value between the efficiency of specific primers and housekeeping 18S. The efficiency was calculated as ((10(‐1/slope))−1) × 100.
(In qPCR the cycle at which signal appears reflects the starting amount.)

Setting [4] is: printed in Figures 5 and 8, HepG2, 24 h, read-out: CC50.
Where [5] appears, read: Homo sapiens, 10 μM, HepG2, 24 h, read-out: secreted PCSK9 change vs. basal.

Where two headings read alike, the source gives them in different places. Where only a bound is given, the exact number is not on record here.

The CC50 is the concentration giving 50% cytotoxicity. What is called IC50 is the concentration at which inhibition is half-maximal. On to `Cc1cc(NCc2ccc(C(F)(F)F)cc2)cc(=O)n1Cc1ccc(C(F)(F)F)cc1` [Compound 5c], for which the CC50 at 24 h in data set [1] (setting [4]) came to 32.4 µM. The IC50 in data set [2] (Homo sapiens) was 1.7 ± 0.67 µM. Also, the “PCSK9 mRNA expression (in words)” value in data set [3] is “strongly suppressed the PCSK9 mRNA expression”.

In the case of `Cc1cc(NCc2ccc(C(F)(F)F)cc2)c(Br)c(=O)n1Cc1ccc(C(F)(F)F)cc1` [Compound 6b, 3‐Bromo‐6‐Methyl‐1‐(4‐(Trifluoromethyl)Benzyl)‐4‐((4‐(Trifluoromethyl)Benzyl)Amino)pyridin‐2(1H)‐One], the cytotoxic concentration (CC50) at 24 h in data set [1] (24 h incubation, HepG2, 0.4% FBS, 0.5-50.0 μM, read-out: CC50 (CI 95%)) worked out at 27 µM. The IC50 in data set [2] (Homo sapiens) turned out to be 2.6 ± 1.61 µM. For the same compound, the inhibition at 5 µM in data set [2] (Homo sapiens, 5 μM, HepG2, 24 h, read-out: secreted PCSK9 change vs. basal) amounted to 75%. For the same compound, the inhibition at 10 µM in data set [2] (setting [5]) came out at 90%. Also, in data set [3], the “PCSK9 mRNA expression (in words)” value is “strongly suppressed the PCSK9 mRNA expression”.

Consider `Cc1cc2c(sc(=N)n2Cc2ccc(C(F)(F)F)cc2)c(=O)n1Cc1ccc(C(F)(F)F)cc1` [Compound 7, 2‐Imino‐6‐Methyl‐1,5‐Bis(4‐(Trifluoromethyl)benzyl)‐1,2‐Dihydrothiazolo[5,4‐c]pyridin‐4(5H)‐One], for which the CC50 at 24 h in data set [1] (setting [4]) is over 50 µM. The “decrease of secreted PCSK9 vs. basal” value came out at 74% in data set [2] (10 μM, HepG2, 24 h) and 90% in data set [2] (25 μM, HepG2, 24 h). For the same compound, the 50% inhibitory concentration (IC50) in data set [2] (Homo sapiens) was found to be 4.1 ± 0.36 µM. In addition, the inhibition at 10 µM in data set [2] (setting [5]) was determined as 74%. For the same compound, the “PCSK9 mRNA expression (in words)” value in data set [3] was “strongly suppressed the PCSK9 mRNA expression”.
